The supplement of paper PMC10307832

What was measured:
Assay in all cases: relative viability (nuclei count vs DMSO), 5 days (fraction); higher = more cells survive
[1] = compound: O[C@H]1CC[C@H](Nc2ncc3nc(Nc4c(F)cc(F)cc4F)n([C@H]4CCOC4)c3n2)CC1 [Tanzisertib] + CC(=O)c1c(C)c2cnc(Nc3ccc(N4CCNCC4)cn3)nc2n(C2CCCC2)c1=O [Palbociclib] (partner 0.5 µM)
Method in brief: (§1)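 Lung cancer cell lines in 1536-well plates got either a single drug or a fixed anchor-drug dose together with five library-drug doses (not always all listed) in √10 steps, by pin tool, on the day after seeding. Nuclei were counted after 5 days, and relative viability is the treated-to-vehicle ratio of nuclei counts. Values are medians of duplicate plates.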

[2] = compound: C[C@@H](N)c1ccc(C(=O)Nc2ccnc3[nH]ccc23)cc1 + CC(=O)c1c(C)c2cnc(Nc3ccc(N4CCNCC4)cn3)nc2n(C2CCCC2)c1=O [Palbociclib] (partner 0.5 µM)
Method in brief: as §1

[3] = compound: C1CNCCC1C2=CC(=NN2)C3=CC=NC=C3 + CC1(C)CCC(c2ccc(Cl)cc2)=C(CN2CCN(c3ccc(C(=O)NS(=O)(=O)c4ccc(N[C@H](CCN5CCOCC5)CSc5ccccc5)c(S(=O)(=O)C(F)(F)F)c4)cc3)CC2)C1 [Navitoclax] (partner 0.5 µM)
Method in brief: as §1

[4] = compound: C1CNCCC1C2=CC(=NN2)C3=CC=NC=C3 + NC(=O)Nc1cc(-c2cccc(F)c2)sc1C(=O)N[C@H]1CCCNC1 [AZD7762] (partner 0.2 µM)
Method in brief: as §1

| Cell Line | relative viability ([1]; first compound 0.08 µM) | relative viability ([1]; first compound 0.253 µM) | relative viability ([1]; first compound 0.8 µM) | relative viability ([1]; first compound 2.53 µM) | relative viability ([1]; first compound 8 µM) | relative viability ([2]; first compound 0.04 µM) | relative viability ([2]; first compound 0.1265 µM) | relative viability ([2]; first compound 0.4 µM) | relative viability ([2]; first compound 1.265 µM) | relative viability ([2]; first compound 4 µM) | relative viability ([3]; first compound 0.08 µM) | relative viability ([3]; first compound 0.8 µM) | relative viability ([3]; first compound 2.53 µM) | relative viability ([3]; first compound 8 µM) | relative viability ([4]; first compound 0.08 µM) | relative viability ([4]; first compound 0.8 µM) | relative viability ([4]; first compound 2.53 µM) | relative viability ([4]; first compound 8 µM) |
| --- | --- | --- | --- | --- | --- | --- | --- | --- | --- | --- | --- | --- | --- | --- | --- | --- | --- | --- |
| NCI-H2347 | 0.466 | 0.457 | 0.452 | 0.444 | 0.435 | 0.422 | 0.443 | 0.41 | 0.483 | 0.463 | 0.784 | 0.556 | 0.855 | 0.823 | 0.763 | 0.494 | 0.745 | 0.76 |
| NCI-H2126 | 0.34 | 0.355 | 0.349 | 0.37 | 0.324 | 0.34 | 0.351 | 0.364 | 0.378 | 0.389 | 0.858 | 0.832 | 0.821 | 0.828 | 1.01 | 1.04 | 1.01 | 1.01 |
| NCI-H838 | 0.233 | 0.225 | 0.219 | 0.228 | 0.198 | 0.183 | 0.221 | 0.229 | 0.192 | 0.183 | 1.13 | 1.11 | 1.25 | 1.14 | 0.928 | 0.888 | 0.989 | 0.934 |
| NCI-H2085 |  | 0.456 | 0.454 | 0.455 | 0.505 | 0.454 | 0.452 | 0.402 | 0.373 | 0.406 | 1.21 | 0.869 | 1.18 | 1.24 | 0.999 |  | 1.03 | 1 |
| NCI-H460 | 0.199 | 0.193 | 0.113 | 0.161 | 0.13 | 0.076 | 0.183 | 0.343 | 0.154 | 0.224 | 0.888 | 1.38 | 1.17 | 1.29 | 0.69 | 0.673 | 0.652 | 0.658 |
| RERF-LC-KJ | 1.12 | 1.01 | 1.25 | 1.05 | 1.05 | 1.05 | 1.12 | 1.22 | 1.23 | 0.943 | 1.05 | 1.01 | 0.76 | 0.94 | 0.905 | 1.04 | 1.11 | 1.01 |
| HCC-15 | 0.794 | 0.73 | 0.737 | 0.752 | 0.713 | 0.705 | 0.704 | 0.704 | 0.694 | 0.674 | 0.756 | 0.785 | 0.706 | 0.662 | 1.17 | 1.3 | 1.21 | 0.987 |
| H3255 | 0.297 | 0.301 | 0.327 | 0.336 | 0.31 | 0.299 | 0.298 | 0.298 | 0.336 | 0.286 | 0.52 | 0.444 | 0.738 | 0.537 | 0.954 | 0.835 | 1.12 | 0.967 |
| NCI-H1792 | 0.7 | 0.66 | 0.654 | 0.64 | 0.573 | 0.685 | 0.698 | 0.699 | 0.771 | 0.627 | 0.611 | 0.679 | 0.639 | 0.589 | 0.616 | 0.675 | 0.632 | 0.717 |
